From ChEMBL document CHEMBL1201862, “PubChem BioAssay data set” (2004) come the findings set out here.

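These data come from cells grown in 96-well plates and exposed to compound for 48 hours at five concentrations. Here, GI50 denotes the concentration required for 50% inhibition of growth.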 Active and inactive are the calls of the source. No stated cut-off is given here; in the data, active = GI50 up to about 1.1 µM and inactive = higher.

Among the test systems are DU-145; IGROV-1; U-251; A498; SK-MEL-5; LOX IMVI; HCT-15; MDA-N; NCI-H226; A549; RPMI-8226; 786-0; MDA-MB-435; COLO 205; Malme-3M; MOLT-4; SNB-19; CCRF-CEM; NCI/ADR-RES; BT-549.
What all share (experiment): inhibition of tumour cell growth, NCI panel, 48 h

Turning to `c1ccc(CCCNc2nnnc3ccccc23)cc1`, the GI50 with DU-145 is > 100 µM (inactive); in the assay on IGROV-1, > 100 µM (inactive); in the assay on U-251, > 100 µM (inactive); in the assay on A498, > 100 µM (inactive); with SK-MEL-5, 32.4 µM (inactive); in the assay with LOX IMVI, 99.5 µM (inactive). Also, the GI50 in the assay on HCT-15 was greater than 100 µM; in the assay with MDA-N, 69 µM (inactive); in the assay on NCI-H226, > 100 µM (inactive); in the assay on A549, 63 µM (inactive); in the assay on RPMI-8226, 35.8 µM (inactive); with 786-0 it was > 100 µM (inactive). Besides, the GI50 with MDA-MB-435 was 55.1 µM (inactive); in the assay with COLO 205, 62.5 µM (inactive); in the assay with Malme-3M it was 58.2 µM (inactive); in the assay with MOLT-4 it was 35.6 µM (inactive); with SNB-19, > 100 µM (inactive); with CCRF-CEM, 73.8 µM (inactive). Further, the GI50 with NCI/ADR-RES was 39.4 µM (inactive); in the assay on BT-549 it was > 100 µM (inactive).
In the case of `O=C(O)Cn1cnc2c(O)nc(Nc3ccccc3)nc21`, the GI50 in the assay on DU-145, in the assay on IGROV-1, in the assay with U-251, with A498, in the assay on SK-MEL-5 and in the assay with LOX IMVI was > 100 µM (inactive) throughout. In addition, the GI50 in the assay on HCT-15 is greater than 100 µM; with MDA-N it was > 100 µM (inactive); in the assay on NCI-H226, > 100 µM (inactive); in the assay with A549 it was > 100 µM (inactive); in the assay with RPMI-8226, > 100 µM (inactive); with 786-0, > 100 µM (inactive). In addition, the GI50 in the assay with MDA-MB-435, in the assay on COLO 205, with Malme-3M, in the assay on MOLT-4, in the assay on SNB-19 and in the assay with CCRF-CEM was > 100 µM (inactive) throughout. Besides, the GI50 with NCI/ADR-RES and in the assay on BT-549 was > 100 µM (inactive) in each case.
Consider `O=C1C=CC2(O[C@H](c3ccccc3)[C@@H](c3ccccc3)O2)[C@H](Sc2ccccc2O)C1`, for which the GI50 was 1.22 µM (inactive) in the assay on DU-145; 0.281 µM (active) in the assay on IGROV-1; 0.498 µM (active) in the assay with U-251; 2.24 µM (inactive) with A498; 0.993 µM (active) in the assay on SK-MEL-5; 0.163 µM (active) with LOX IMVI. Further, the GI50 in the assay with HCT-15 was 0.221 µM; in the assay on MDA-N, 0.316 µM (active); in the assay with NCI-H226 it was 2.72 µM (inactive); in the assay with A549, 2.73 µM (inactive); in the assay with RPMI-8226, 0.0424 µM (active); in the assay with 786-0 it was 0.15 µM (active). Further, the GI50 is 0.309 µM (active) in the assay on MDA-MB-435; 0.499 µM (active) with COLO 205; 0.294 µM (active) in the assay on Malme-3M; 0.0286 µM (active) in the assay with MOLT-4; 1.72 µM (inactive) with SNB-19; < 0.0156 µM (active) in the assay on CCRF-CEM. Further, the GI50 in the assay on NCI/ADR-RES was 0.414 µM (active); with BT-549, 0.502 µM (active).
As for `O=C(CC(=O)Nc1ccccc1)NNC(c1cc(/N=N/c2ccc(Br)cc2)ccc1O)P(O)O` (stereo not given), the GI50 in the assay on DU-145 was 3.48 µM (inactive); in the assay with IGROV-1, 9.62 µM (inactive); in the assay on U-251, 3.51 µM (inactive); in the assay on A498, 2.43 µM (inactive); with SK-MEL-5 it was 1.53 µM (inactive); with LOX IMVI it was 1.71 µM (inactive). In addition, the GI50 with HCT-15 is 0.425 µM; with MDA-N it was 3.83 µM (inactive); with NCI-H226, 1.57 µM (inactive); in the assay with A549 it was 6.41 µM (inactive); in the assay with RPMI-8226 it was 1.86 µM (inactive); in the assay with 786-0, 0.489 µM (active). Further, the GI50 in the assay with MDA-MB-435 was 1.77 µM (inactive); in the assay with COLO 205, 4.49 µM (inactive); with Malme-3M, 2.38 µM (inactive); in the assay on MOLT-4, 0.321 µM (active); in the assay with SNB-19, > 10 µM (inactive); in the assay on CCRF-CEM, 0.322 µM (active). In addition, the GI50 in the assay with NCI/ADR-RES is 1.06 µM (active); with BT-549, 4 µM (inactive).
`O=c1c(F)cn(Cc2c(Cl)cccc2Cl)c(=O)n1Cc1c(Cl)cccc1Cl`: the GI50 in the assay on DU-145 was > 100 µM (inactive); with IGROV-1, > 31.6 µM (inactive); with U-251 it was > 31.6 µM (inactive); in the assay with A498, > 31.6 µM (inactive); in the assay with SK-MEL-5, 18.1 µM (inactive); in the assay with LOX IMVI, > 31.6 µM (inactive). Also, the GI50 with HCT-15 is greater than 31.6 µM; in the assay with MDA-N, > 31.6 µM (inactive); in the assay with NCI-H226, > 71.6 µM (inactive); in the assay on A549, > 31.6 µM (inactive); in the assay on RPMI-8226 it was > 31.6 µM (inactive); with 786-0, > 31.6 µM (inactive). For the same molecule, the GI50 in the assay on MDA-MB-435 is 29.6 µM (inactive); in the assay on COLO 205 it was 19.9 µM (inactive); with Malme-3M, > 31.6 µM (inactive); in the assay with MOLT-4, 25.6 µM (inactive); in the assay on SNB-19, > 100 µM (inactive); in the assay on CCRF-CEM, 27 µM (inactive). Also, the GI50 with NCI/ADR-RES and in the assay on BT-549 was > 31.6 µM (inactive) throughout.
Consider `CCCCCCCCCCCC(=O)NCc1ccc(OC(=O)CCCCCCCCCCC)c(OC)c1`, for which the GI50 in the assay on DU-145 is > 79.3 µM (inactive); with IGROV-1, 4.21 µM (inactive); in the assay with U-251, > 100 µM (inactive); with A498, > 100 µM (inactive); in the assay on SK-MEL-5, > 63 µM (inactive); in the assay on LOX IMVI, 5.42 µM (inactive). Also, the GI50 in the assay on HCT-15 was greater than 100 µM; in the assay on MDA-N, 61.4 µM (inactive); with NCI-H226, > 100 µM (inactive); with A549, > 100 µM (inactive); in the assay on RPMI-8226 it was 33.5 µM (inactive); in the assay on 786-0, > 100 µM (inactive). In addition, the GI50 with MDA-MB-435 was > 75.2 µM (inactive); in the assay on COLO 205, 35.6 µM (inactive); in the assay with Malme-3M, > 100 µM (inactive); with MOLT-4, 2.75 µM (inactive); in the assay on SNB-19, > 100 µM (inactive); in the assay on CCRF-CEM it was 1.34 µM (inactive). The GI50 with NCI/ADR-RES and with BT-549 was > 100 µM (inactive) each time.
With `C1CCN2CC3CCCN4CCCC(C2C1)C34` (stereo not given), the GI50 in the assay on DU-145, in the assay on IGROV-1, in the assay with U-251, with A498, in the assay on SK-MEL-5 and in the assay on LOX IMVI was > 100 µM (inactive) throughout. For the same molecule, the GI50 in the assay on HCT-15 was greater than 100 µM; in the assay on MDA-N, > 100 µM (inactive); in the assay with NCI-H226, > 100 µM (inactive); in the assay on A549, > 100 µM (inactive); in the assay with RPMI-8226, > 100 µM (inactive); in the assay with 786-0, > 100 µM (inactive). Besides, the GI50 in the assay on MDA-MB-435, with COLO 205, in the assay with Malme-3M, in the assay with MOLT-4, in the assay on SNB-19 and with CCRF-CEM was > 100 µM (inactive) each time. The GI50 with NCI/ADR-RES and with BT-549 was > 100 µM (inactive) throughout.
As to `CN(C)CCNCc1ccc2c(-c3ccccc3)nc3cc(Cl)c(Cl)cc3n12`, the GI50 is 9.64 µM (inactive) in the assay with DU-145; 7.59 µM (inactive) with IGROV-1; 9.08 µM (inactive) in the assay on U-251; 15.2 µM (inactive) in the assay with A498; 8.32 µM (inactive) with SK-MEL-5; 7.48 µM (inactive) in the assay with LOX IMVI. Also, the GI50 in the assay with HCT-15 is 9.62 µM; in the assay with MDA-N it was 9.48 µM (inactive); with NCI-H226, 17.9 µM (inactive); in the assay on A549, 10.1 µM (inactive); in the assay with RPMI-8226 it was 12.8 µM (inactive); in the assay with 786-0, 5.96 µM (inactive). The GI50 is 8.69 µM (inactive) with MDA-MB-435; 6.92 µM (inactive) in the assay on COLO 205; 17.5 µM (inactive) in the assay on Malme-3M; 8.53 µM (inactive) with MOLT-4; 14 µM (inactive) in the assay on SNB-19; 1.3 µM (inactive) in the assay with CCRF-CEM. In addition, the GI50 with NCI/ADR-RES is 15.8 µM (inactive); with BT-549 it was 16.4 µM (inactive).
With `Cc1cc(N(CCC#N)CCC#N)ccc1/C=C(\NC(=O)/C=C/c1ccccc1)C(=O)NN`, the GI50 in the assay with DU-145 is > 100 µM (inactive); with IGROV-1, > 75.3 µM (inactive); with U-251 it was 26 µM (inactive); in the assay with A498 it was > 100 µM (inactive); in the assay on SK-MEL-5 it was > 79.6 µM (inactive); in the assay on LOX IMVI, > 100 µM (inactive). In addition, the GI50 was greater than 100 µM with HCT-15; > 100 µM (inactive) in the assay on MDA-N; > 55.6 µM (inactive) in the assay with NCI-H226; > 100 µM (inactive) in the assay with A549; > 100 µM (inactive) with RPMI-8226; 30.6 µM (inactive) in the assay with 786-0. In addition, the GI50 in the assay on MDA-MB-435 is > 100 µM (inactive); in the assay on COLO 205, > 100 µM (inactive); with Malme-3M it was > 100 µM (inactive); in the assay on MOLT-4 it was > 100 µM (inactive); in the assay on SNB-19 it was > 40.9 µM (inactive); with CCRF-CEM, > 100 µM (inactive). Further, the GI50 was > 100 µM (inactive) in the assay with NCI/ADR-RES and 25.6 µM (inactive) with BT-549.
Regarding `COc1ccc2oc(S(=O)(=O)N3CC(CCl)c4ccc([N+](=O)[O-])cc43)cc2c1` (stereo not given), the GI50 in the assay on DU-145 is 0.0883 µM (active); in the assay with IGROV-1, 0.0815 µM (active); in the assay with U-251, 0.0955 µM (active); with A498 it was 0.0746 µM (active); with SK-MEL-5 it was 0.0752 µM (active); in the assay with LOX IMVI it was 0.155 µM (active). The GI50 in the assay with HCT-15 is 0.0703 µM; with MDA-N, 0.0301 µM (active); with NCI-H226, 0.127 µM (active); in the assay on A549 it was 0.274 µM (active); in the assay with RPMI-8226, 0.107 µM (active); in the assay on 786-0, 0.0959 µM (active). The GI50 with MDA-MB-435 is 0.0177 µM (active); in the assay with COLO 205, 0.105 µM (active); in the assay on Malme-3M, 0.767 µM (active); with MOLT-4 it was 0.223 µM (active); with SNB-19 it was 0.233 µM (active); in the assay with CCRF-CEM, 0.45 µM (active). The GI50 with NCI/ADR-RES is 0.0596 µM (active); in the assay with BT-549 it was 0.351 µM (active).
